Data on 27 compounds can be found in patent US20260174786A1, “A NITROGEN-CONTAINING SPIROCYCLIC COMPOUND, PHARMACEUTICAL COMPOSITION AND USE THEREOF” (Prime Gene Therapeutics Co., Ltd., priority 2022, published 2026).

The structures appear in SMILES notation.

This experiment addresses T1, hTRPV3 (Homo sapiens, UniProt Q8NET8).
T1 construct: expressed in transfected cells; host or cells: HEK-293
T1 sequence (Q8NET8 1-790): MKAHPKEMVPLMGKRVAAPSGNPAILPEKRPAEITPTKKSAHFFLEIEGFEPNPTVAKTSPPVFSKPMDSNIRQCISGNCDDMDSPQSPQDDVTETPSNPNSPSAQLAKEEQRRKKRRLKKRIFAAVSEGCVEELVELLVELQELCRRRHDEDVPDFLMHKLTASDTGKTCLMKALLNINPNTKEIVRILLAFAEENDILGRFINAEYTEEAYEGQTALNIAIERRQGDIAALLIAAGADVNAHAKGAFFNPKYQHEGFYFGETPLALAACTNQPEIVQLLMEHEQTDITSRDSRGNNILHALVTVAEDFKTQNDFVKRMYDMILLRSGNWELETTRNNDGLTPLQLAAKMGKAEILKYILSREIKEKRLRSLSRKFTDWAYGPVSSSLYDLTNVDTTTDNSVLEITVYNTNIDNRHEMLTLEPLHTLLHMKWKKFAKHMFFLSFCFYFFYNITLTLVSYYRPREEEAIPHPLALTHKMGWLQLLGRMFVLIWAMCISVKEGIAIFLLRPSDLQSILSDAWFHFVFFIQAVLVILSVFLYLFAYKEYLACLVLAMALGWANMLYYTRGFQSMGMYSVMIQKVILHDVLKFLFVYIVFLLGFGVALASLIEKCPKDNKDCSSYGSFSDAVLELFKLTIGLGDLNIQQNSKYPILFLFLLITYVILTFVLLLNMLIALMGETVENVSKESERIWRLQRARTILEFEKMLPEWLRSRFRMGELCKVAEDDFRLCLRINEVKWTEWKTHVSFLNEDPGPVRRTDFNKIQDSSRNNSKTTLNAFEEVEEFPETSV
Kind of experiment: Whole cell patch clamp inhibition rate test on HEK-293 cells instantaneously expressing TRPV3. Type of experiment: cell-based. As to conditions: HEK293; hTRPV3, single concentration 0.3 μM. In a few lines: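 HEK-293 cells transiently transfected with TRPV3, recorded next-but-one day by whole-cell patch clamp at room temperature: holding −80 mV, ramp −100 to 100 mV over 100 ms every 5 s, peak current monitored. Ascending concentrations perfused, 5 min each; each cell its own control, at least two cells per concentration.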
(In general: In patch-clamp work, channel activity is measured electrically.)
For `CC(C)c1ccccc1-c1ccc2c(c1)C(O)CC21CCN(C(=O)c2cc3cccn3cn2)C1` (stereo not drawn) [Example 76, (3-hydroxy-5-(2-isopropylphenyl)-2,3-dihydrospiro[indene-1,3′-pyrrolidine]-1′-yl)(pyrrolo[1,2-c]pyrimidin-3-yl)ketone], the inhibition at 0.3 µM was 50 to 70%.
For `CCc1ccccc1-c1ccc2c(c1)C(O)CC21CCN(C(=O)c2ccc(F)cn2)C1` (stereo not drawn) [Example 80, (5-(2-ethylphenyl)-3-hydroxy-2,3-dihydrospiro[indene-1,3′-pyrrolidine]-1′-yl)(5-fluoropyridin-2-yl) ketone], the inhibition at 0.3 µM is 70 to 100%.
On to `O=C(c1ccc(F)cn1)N1CCC2(CC(O)c3cc(-c4ccccc4Cl)ccc32)C1` (stereo not drawn) [Example 81, (5-(2-chlorophenyl)-3-hydroxy-2,3-dihydrospiro[indene-1,3′-pyrrolidine]-1′-yl)(5-fluoropyridin-2-yl) ketone], for which the inhibition at 0.3 µM was 50 to 70%.
The compound `O=C(c1ccc(F)cn1)N1CCC2(CC(O)c3cc(-c4ccccc4OC(F)(F)F)ccc32)C1` (stereo not drawn) [Example 82, (5-fluoropyridin-2-yl)(3-hydroxy-5-(2-(trifluoromethoxy)phenyl)-2,3-dihydrospiro[indene-1,3′-pyrrolidine]-1′-yl) ketone] gave an inhibition at 0.3 µM of 50 to 70%.
For the compound `O=C(c1ccc(F)cn1)N1CCC2(CC(O)c3cc(-c4cc(F)ccc4C4CC4)ccc32)C1` (stereo not drawn) [Example 83, (5-(2-cyclopropyl-5-fluorophenyl)-3-hydroxy-2,3-dihydrospiro[indene-1,3′-pyrrolidine]-1′-yl)(5-fluoropyridin-2-yl) ketone], the inhibition at 0.3 µM lay within 70 to 100%.
As to `O=C(c1ccc(F)cn1)N1CCC2(CC(O)c3cc(-c4ccccc4)ccc32)C1` (stereo not drawn) [Example 84, (5-fluoropyridin-2-yl)(3-hydroxy-5-phenyl-2,3-dihydrospiro[indene-1,3′-pyrrolidine]-1′-yl) ketone], the inhibition at 0.3 µM is 25 to 50%.
The compound `Cc1cccc(-c2ccc3c(c2)C(O)CC32CCN(C(=O)c3ccc(F)cn3)C2)c1C1CC1` (stereo not drawn) [Example 85, (5-(2-cyclopropyl-3-methylphenyl)-3-hydroxy-2,3-dihydrospiro[indene-1,3′-pyrrolidine]-1′-yl)(5-fluoropyridin-2-yl) ketone] displayed an inhibition at 0.3 µM of 70 to 100%.
On to `CCOc1ccccc1-c1ccc2c(c1)C(O)CC21CCN(C(=O)c2ccc(F)cn2)C1` (stereo not drawn) [Example 86, (5-(2-ethoxyphenyl)-3-hydroxy-2,3-dihydrospiro[indene-1,3′-pyrrolidine]-1′-yl)(5-fluoropyridin-2-yl) ketone], for which the inhibition at 0.3 µM fell in the range of 50 to 70%.
Compound `O=C(c1ccc(F)cn1)N1CCC2(CC(O)c3cc(-c4cccc5c4CCC5)ccc32)C1` (stereo not drawn) [Example 87, (5-(2,3-dihydro-1H-indene-4-yl)-3-hydroxy-2,3-dihydrospiro[indene-1,3′-pyrrolidine]-1′-yl)(5-fluoropyridin-2-yl) ketone] came in with an inhibition at 0.3 µM of 50 to 70%.
Compound `CC(C)(C)c1ccccc1-c1ccc2c(c1)C(O)CC21CCN(C(=O)c2ccc(F)cn2)C1` (stereo not drawn) [Example 88, (5-(2-(tert-butyl)phenyl)-3-hydroxy-2,3-dihydrospiro[indene-1,3′-pyrrolidine]-1′-yl)(5-fluoropyridin-2-yl) ketone] yielded an inhibition at 0.3 µM of 70 to 100%.
As to `CC(C)(O)c1ccccc1-c1ccc2c(c1)C(O)CC21CCN(C(=O)c2ccc(F)cn2)C1` (stereo not drawn) [Example 89, (5-fluoropyridin-2-yl)(3-hydroxy-5-(2-(2-hydroxypropyl-2-)phenyl)-2,3-dihydrospiro[indene-1,3′-pyrrolidine]-1′-yl) ketone], the inhibition at 0.3 µM lay within 25 to 50%.
Consider `Cc1ncccc1-c1ccc2c(c1)C(O)CC21CCN(C(=O)c2ccc(F)cn2)C1` (stereo not drawn) [Example 91, (5-fluoropyridin-2-yl)(3-hydroxy-5-(2-methylpyridin-3-yl)-2,3-dihydrospiro[indene-1,3′-pyrrolidine]-1′-yl) ketone], for which the inhibition at 0.3 µM was < 25%.
Consider `O=C(c1ccc(F)cn1)N1CCC2(CC(O)c3cc(-c4cccc5ccccc45)ccc32)C1` (stereo not drawn) [Example 92, (5-fluoropyridin-2-yl)(3-hydroxy-5-(naphthalen-1-yl)-2,3-dihydrospiro[indene-1,3′-pyrrolidine]-1′-yl) ketone], for which the inhibition at 0.3 µM was in the range of 70 to 100%.
For the compound `CC(=O)c1cc(F)ccc1-c1ccc2c(c1)C(O)CC21CCN(C(=O)c2ccc(F)cn2)C1` (stereo not drawn) [Example 95, 1-(5-fluoro-2-(1′-(5-fluoropyridoyl)-3-hydroxy-2,3-dihydrospiro[indene-1,3′-pyrrolidine]-5-yl)phenyl)ethan-1-one], the inhibition at 0.3 µM lay in the range of 70 to 100%.
Regarding `CC(C)c1ccccc1-c1ccc2c(c1)C1(CCN(C(=O)c3ccc(F)cn3)C1)CC2O` (stereo not drawn) [Example 103, (5-fluoropyridin-2-yl)(3-hydroxy-6-(2-isopropylphenyl)-2,3-dihydrospiro[indene-1,3′-pyrrolidine]-1′-yl) ketone], the inhibition at 0.3 µM was < 25%.
Compound `CC(C)c1ccccc1Oc1ccc2c(c1)C(O)CC21CCN(C(=O)c2ccc(F)cn2)C1` (stereo not drawn) [Example 104, (5-fluoropyridin-2-yl)(3-hydroxy-5-(2-isopropylphenyloxy)-2,3-dihydrospiro[indene-1,3′-pyrrolidine]-1′-yl) ketone] displayed an inhibition at 0.3 µM of 70 to 100%.
Next, `CCc1nccnc1Oc1ccc2c(c1)C(O)CC21CCN(C(=O)c2ccc(F)cn2)C1` (stereo not drawn) [Example 105, (5-((3-ethylpyrazin-2-yl)oxy)-3-hydroxy-2,3-dihydrospiro[indene-1,3′-pyrrolidine]-1′-yl)(5-fluoropyridin-2-yl] ketone]: < 25%.
Compound `CC(C)c1ccccc1Sc1ccc2c(c1)C(O)CC21CCN(C(=O)c2ccc(F)cn2)C1` (stereo not drawn) [Example 106, (5-fluoropyridin-2-yl)(3-hydroxy-5-((2-isopropylphenyl)thio)-2,3-dihydrospiro[indene-1,3′-pyrrolidine]-1′-yl) ketone] displayed an inhibition at 0.3 µM of 70 to 100%.
Consider `CC(C)c1ccccc1[S+]([O-])c1ccc2c(c1)C(O)CC21CCN(C(=O)c2ccc(F)cn2)C1` (stereo not drawn) [Example 107, (5-fluoropyridin-2-yl)(3-hydroxy-5-((2-isopropylphenyl)sulfoxide)-2,3-dihydrospiro[indene-1,3′-pyrrolidine]-1′-yl) ketone], for which the inhibition at 0.3 µM is < 25%.
Next, `CC(C)c1ccccc1S(=O)(=O)c1ccc2c(c1)C(O)CC21CCN(C(=O)c2ccc(F)cn2)C1` (stereo not drawn) [Example 108, (5-fluoropyridin-2-yl)(3-hydroxy-5-((2-isopropylphenyl)sulfonyl)-2,3-dihydrospiro[indene-1,3′-pyrrolidine]-1′-yl) ketone]: < 25%; `CC(C)c1ccccc1-c1ccc2c(c1)CCC21CCN(C(=O)c2ccc(F)cn2)C1` (stereo not drawn) [Example 120, (5-fluoropyridin-2-yl)(5-(2-isopropylphenyl)-2,3-dihydrospiro[indene-1,3′-pyrrolidine]-1′-yl) ketone]: < 25%.
Consider `CC(C)c1ccccc1-c1ccc2c(c1)C(CO)CC21CCN(C(=O)c2ccc(F)cn2)C1` (stereo not drawn) [Example 126, (5-fluoropyridin-2-yl)(3-(methylol)-5-(2-isopropylphenyl)-2,3-dihydrospiro[indene-1,3′-pyrrolidine]-1′-yl) ketone], for which the inhibition at 0.3 µM lay in the range of 70 to 100%.
On to `CC(C)c1ccccc1-c1ccc2c(c1)C(C(=O)O)CC21CCN(C(=O)c2ccc(F)cn2)C1` (stereo not drawn) [Example 129, 1′-(5-fluoropyridoyl)-5-(2-isopropylphenyl)-2,3-dihydrospiro[indene-1,3′-pyrrolidine]-3-carboxylic acid], for which the inhibition at 0.3 µM was < 25%.
Take `COC(=O)C1CC2(CCN(C(=O)c3ccc(F)cn3)C2)c2ccc(-c3ccccc3C(C)C)cc21` (stereo not drawn) [Example 130, methyl 1′-(5-fluoropyridoyl)-5-(2-isopropylphenyl)-2,3-dihydrospiro[indene-1,3′-pyrrolidine]-3-carboxylate]: the inhibition at 0.3 µM was < 25%.
`CC(C)c1ccccc1-c1ccc2c(c1)C(O)CC21CCN(Cc2ccc(F)cn2)C1` (stereo not drawn) [Example 134, 1′-((5-fluoropyridin-2-yl)methyl)-5-(2-isopropylphenyl)-2,3-dihydrospiro[indene-1,3′-pyrrolidine]-3-ol]: the inhibition at 0.3 µM is < 25%.
As for `CC(C)c1ccccc1-c1ccc2c(c1)C(O)CC21CCN(S(=O)(=O)c2ccc(Cl)cn2)C1` (stereo not drawn) [Example 135, 1′-((5-chloropyridin-2-yl)sulfonyl)-5-(2-isopropylphenyl)-2,3-dihydrospiro[indene-1,3′-pyrrolidine]-3-ol], the inhibition at 0.3 µM is < 25%.
Regarding `CC(C)c1ccccc1-c1ccc2c(c1)C(O)CC21CC(=O)N(Cc2ccc(F)cn2)C1` (stereo not drawn) [Example 137, 1′-((5-fluoropyridin-2-yl)methyl)-3-hydroxy-5-(2-isopropylphenyl)-2,3-dihydrospiro[indene-1,3′-pyrrolidine]-5′-one], the inhibition at 0.3 µM is < 25%.

In general, inhibition refers to the drop in the measured response relative to a control, in per cent.
